Assay results: patent US8557823B2, “Family of PFKFB3 inhibitors with anti-neoplastic activities” (Advanced Cancer Therapeutics, LLC, priority 2007, dated 2013)

Experiments:
[1] = system: Lewis Lung Carcinoma xenografts; assay: Lewis Lung Carcinoma xenografts in C57/Blk6 mice; assay type: in vivo; conditions: 0.07 mg/g IP once daily, 14 days
Experimental: FIG. 7A is a graph showing the effects of 3PO treatment on the growth of Lewis Lung Carcinoma tumor xenografts in C57/Blk6 mice. Tumors were measured daily using blunt end Vernier calipers, and mice with established tumors (130-190 mg) were blindly randomized into either a DMSO control group (•, n=11) or a 3PO treatment group (∘, n=14). Experimental mice were weighed and given daily intraperitoneal (i.p.) injections of either 50 μL DMSO or 0.07 mg/g 3PO in 50 μL DMSO at the indicated time points. Arrows (↓) represent control or 3PO daily administrations. Statistically significant difference between DMSO and 3PO groups was obtained after initial injection (Day 2, p-value<0.0003).
Exponentially growing MDA-MB231 and HL-60 cells were collected in appropriate medium, washed twice and resuspended in PBS at a concentration of 20×10^7 cells/mL. […] Body weight and tumor growth were monitored daily throughout the study. Tumor masses were determined by measurement with Vernier calipers using the formula: mass (mg)=[width (mm^2)×length (mm)]/2. […]
The first tumor model tested consisted of mouse Lewis Lung Carcinoma xenografts grown in C57/Blk6 mice. For this study, mice were given IP injections of either DMSO or the calculated dose of 1 once daily for the duration of the study (14 days). […]

[2] = system: LLC (Lewis Lung Carcinoma) cells; assay: In vitro growth inhibition, LLC; assay type: cell-based; conditions: mouse LLC
Experimental: The K562, HL-60, MDA-MB231, and melanoma (CRL-11174) human cancer cell lines were purchased from ATCC (American Tissue Type Culture Collection, Manassas, Va., United States of America). HeLa, A549, Lewis Lung Carcinoma, MDA-MB231, and melanoma cells were grown in Dulbecco's Modified Eagle Medium (DMEM) (Hyclone, Logan, Utah, United States of America) supplemented with 10% fetal bovine serum (Hyclone, Logan, Utah, United States of America) and 50 μg/mL gentamicin sulfate (Invitrogen, Carlsbad, Calif., United States of America). The HL-60, K562, and Jurkat cell lines were grown in RPMI-1640 medium (Hyclone, Logan, Utah, United States of America) supplemented with 10% fetal bovine serum and 50 μg/mL gentamicin sulfate. […]
Cells were collected 48 hours post-treatment, and cell number and viability were determined by trypan blue exclusion. […]

## O=C(/C=C/c1cccnc1)c1ccncc1 [Compound 1, 3-(3-pyridinyl)-1-(4-pyridinyl)-2-propen-1-one]
[1]
  suppression of xenograft growth compared to DMSO control: 73%
[2]
  IC50: 19 µM
